Reference: the NIST ThermoML archive (doi:10.1016/j.jct.2007.04.005)

Assay: xn = mol fraction of the nth substance listed
Conditions: 298.15 K, Liquid

CCCCCCCCC [nonane] + C1CCCCC1
Conditions	mass density [kg/m3]
100 kPa, x2 = 0	713.6
100 kPa, x2 = 0.09303	716.6
100 kPa, x2 = 0.2009	720.5
100 kPa, x2 = 0.3051	724.8
100 kPa, x2 = 0.417	729.9
100 kPa, x2 = 0.512	734.6
100 kPa, x2 = 0.5996	739.8
100 kPa, x2 = 0.7052	746.6
100 kPa, x2 = 0.7993	753.9
100 kPa, x2 = 0.9039	763.1
101 kPa, x2 = 0	713.86
101 kPa, x2 = 0.1022	717.19
101 kPa, x2 = 0.1548	719.05
101 kPa, x2 = 0.2009	720.75
101 kPa, x2 = 0.2591	723.01
101 kPa, x2 = 0.3306	726.01
101 kPa, x2 = 0.4003	729.17
101 kPa, x2 = 0.4596	732.07
101 kPa, x2 = 0.5321	735.92
101 kPa, x2 = 0.612	740.61
101 kPa, x2 = 0.6649	744.01
101 kPa, x2 = 0.7224	748.02
101 kPa, x2 = 0.8047	754.4
101 kPa, x2 = 0.8686	759.98
101 kPa, x2 = 0.9405	767.1
2130 kPa, x2 = 0	715.2
2130 kPa, x2 = 0.09303	718.2
2130 kPa, x2 = 0.2009	722.2
2130 kPa, x2 = 0.3051	726.5
2130 kPa, x2 = 0.417	731.5
2130 kPa, x2 = 0.512	736.2
2130 kPa, x2 = 0.5996	741.4
2130 kPa, x2 = 0.7052	748.2
2130 kPa, x2 = 0.7993	755.6
2130 kPa, x2 = 0.9039	764.8
4150 kPa, x2 = 0	716.8
4150 kPa, x2 = 0.09303	719.8
4150 kPa, x2 = 0.2009	723.8
4150 kPa, x2 = 0.3051	728.1
4150 kPa, x2 = 0.417	733.1
4150 kPa, x2 = 0.512	737.8
4150 kPa, x2 = 0.5996	743.1
4150 kPa, x2 = 0.7052	749.9
4150 kPa, x2 = 0.7993	757.2
4150 kPa, x2 = 0.9039	766.5
6180 kPa, x2 = 0	718.4
6180 kPa, x2 = 0.09303	721.4
6180 kPa, x2 = 0.2009	725.4
6180 kPa, x2 = 0.3051	729.7
6180 kPa, x2 = 0.417	734.7
6180 kPa, x2 = 0.512	739.5
6180 kPa, x2 = 0.5996	744.7
6180 kPa, x2 = 0.7052	751.5
6180 kPa, x2 = 0.7993	758.8
6180 kPa, x2 = 0.9039	768.1
8210 kPa, x2 = 0	719.9
8210 kPa, x2 = 0.09303	722.9
8210 kPa, x2 = 0.2009	726.9
8210 kPa, x2 = 0.3051	731.2
8210 kPa, x2 = 0.417	736.3
8210 kPa, x2 = 0.512	741
8210 kPa, x2 = 0.5996	746.3
8210 kPa, x2 = 0.7052	753.1
8210 kPa, x2 = 0.7993	760.4
8210 kPa, x2 = 0.9039	769.7
10230 kPa, x2 = 0	721.4
10230 kPa, x2 = 0.09303	724.4
10230 kPa, x2 = 0.2009	728.5
10230 kPa, x2 = 0.3051	732.8
10230 kPa, x2 = 0.417	737.9
10230 kPa, x2 = 0.512	742.5
10230 kPa, x2 = 0.5996	747.9
10230 kPa, x2 = 0.7052	754.7
10230 kPa, x2 = 0.7993	762
10230 kPa, x2 = 0.9039	771.3
11250 kPa, x2 = 0	722.2
11250 kPa, x2 = 0.09303	725.2
11250 kPa, x2 = 0.2009	729.2
11250 kPa, x2 = 0.3051	733.5
11250 kPa, x2 = 0.417	738.6
11250 kPa, x2 = 0.512	743.3
11250 kPa, x2 = 0.5996	748.6
11250 kPa, x2 = 0.7052	755.5
11250 kPa, x2 = 0.7993	762.8
11250 kPa, x2 = 0.9039	772.1
12260 kPa, x2 = 0	722.9
12260 kPa, x2 = 0.09303	725.9
12260 kPa, x2 = 0.2009	730
12260 kPa, x2 = 0.3051	734.3
12260 kPa, x2 = 0.417	739.4
12260 kPa, x2 = 0.512	744.1
12260 kPa, x2 = 0.5996	749.4
12260 kPa, x2 = 0.7052	756.2
12260 kPa, x2 = 0.7993	763.5
12260 kPa, x2 = 0.9039	772.9
14290 kPa, x2 = 0	724.4
14290 kPa, x2 = 0.09303	727.4
14290 kPa, x2 = 0.2009	731.5
14290 kPa, x2 = 0.3051	735.8
14290 kPa, x2 = 0.417	740.9
14290 kPa, x2 = 0.512	745.5
14290 kPa, x2 = 0.5996	750.9
14290 kPa, x2 = 0.7052	757.8
14290 kPa, x2 = 0.7993	765.1
14290 kPa, x2 = 0.9039	774.4
16310 kPa, x2 = 0	725.8
16310 kPa, x2 = 0.09303	728.8
16310 kPa, x2 = 0.2009	732.9
16310 kPa, x2 = 0.3051	737.2
16310 kPa, x2 = 0.417	742.3
16310 kPa, x2 = 0.512	747
16310 kPa, x2 = 0.5996	752.3
16310 kPa, x2 = 0.7052	759.2
16310 kPa, x2 = 0.7993	766.5
16310 kPa, x2 = 0.9039	775.9
18340 kPa, x2 = 0	727.2
18340 kPa, x2 = 0.09303	730.2
18340 kPa, x2 = 0.2009	734.3
18340 kPa, x2 = 0.3051	738.6
18340 kPa, x2 = 0.417	743.7
18340 kPa, x2 = 0.512	748.4
18340 kPa, x2 = 0.5996	753.8
18340 kPa, x2 = 0.7052	760.7
18340 kPa, x2 = 0.7993	768
18340 kPa, x2 = 0.9039	777.3
20370 kPa, x2 = 0	728.6
20370 kPa, x2 = 0.09303	731.6
20370 kPa, x2 = 0.2009	735.7
20370 kPa, x2 = 0.3051	740
20370 kPa, x2 = 0.417	745.1
20370 kPa, x2 = 0.512	749.8
20370 kPa, x2 = 0.5996	755.2
20370 kPa, x2 = 0.7052	762.1
20370 kPa, x2 = 0.7993	769.4
20370 kPa, x2 = 0.9039	778.8
22390 kPa, x2 = 0	730
22390 kPa, x2 = 0.09303	732.9
22390 kPa, x2 = 0.2009	737.1
22390 kPa, x2 = 0.3051	741.4
22390 kPa, x2 = 0.417	746.5
22390 kPa, x2 = 0.512	751.3
22390 kPa, x2 = 0.5996	756.6
22390 kPa, x2 = 0.7052	763.5
22390 kPa, x2 = 0.7993	770.8
22390 kPa, x2 = 0.9039	780.2
24420 kPa, x2 = 0	731.3
24420 kPa, x2 = 0.09303	734.2
24420 kPa, x2 = 0.2009	738.4
24420 kPa, x2 = 0.3051	742.7
24420 kPa, x2 = 0.417	747.9
24420 kPa, x2 = 0.512	752.6
24420 kPa, x2 = 0.5996	758
24420 kPa, x2 = 0.7052	764.9
24420 kPa, x2 = 0.7993	772.2
24420 kPa, x2 = 0.9039	781.6
26450 kPa, x2 = 0	732.6
26450 kPa, x2 = 0.09303	735.6
26450 kPa, x2 = 0.2009	739.8
26450 kPa, x2 = 0.3051	744.1
26450 kPa, x2 = 0.417	749.2
26450 kPa, x2 = 0.512	753.9
26450 kPa, x2 = 0.5996	759.3
26450 kPa, x2 = 0.7052	766.3
26450 kPa, x2 = 0.7993	773.5
26450 kPa, x2 = 0.9039	783
28470 kPa, x2 = 0	733.9
28470 kPa, x2 = 0.09303	736.9
28470 kPa, x2 = 0.2009	741.1
28470 kPa, x2 = 0.3051	745.3
28470 kPa, x2 = 0.417	750.5
28470 kPa, x2 = 0.512	755.2
28470 kPa, x2 = 0.5996	760.6
28470 kPa, x2 = 0.7052	767.6
28470 kPa, x2 = 0.7993	774.9
28470 kPa, x2 = 0.9039	784.3
29490 kPa, x2 = 0	734.5
29490 kPa, x2 = 0.09303	737.5
29490 kPa, x2 = 0.2009	741.7
29490 kPa, x2 = 0.3051	746
29490 kPa, x2 = 0.417	751.1
29490 kPa, x2 = 0.512	755.8
29490 kPa, x2 = 0.5996	761.3
29490 kPa, x2 = 0.7052	768.2
29490 kPa, x2 = 0.7993	775.5
29490 kPa, x2 = 0.9039	785
30500 kPa, x2 = 0	735.1
30500 kPa, x2 = 0.09303	738.1
30500 kPa, x2 = 0.2009	742.3
30500 kPa, x2 = 0.3051	746.6
30500 kPa, x2 = 0.417	751.8
30500 kPa, x2 = 0.512	756.5
30500 kPa, x2 = 0.5996	761.9
30500 kPa, x2 = 0.7052	768.9
30500 kPa, x2 = 0.7993	776.2
30500 kPa, x2 = 0.9039	785.7
32530 kPa, x2 = 0	736.4
32530 kPa, x2 = 0.09303	739.4
32530 kPa, x2 = 0.2009	743.6
32530 kPa, x2 = 0.3051	747.9
32530 kPa, x2 = 0.417	753
32530 kPa, x2 = 0.512	757.7
32530 kPa, x2 = 0.5996	763.2
32530 kPa, x2 = 0.7052	770.2
32530 kPa, x2 = 0.7993	777.5
32530 kPa, x2 = 0.9039	787
34550 kPa, x2 = 0	737.6
34550 kPa, x2 = 0.09303	740.7
34550 kPa, x2 = 0.2009	744.8
34550 kPa, x2 = 0.3051	749.1
34550 kPa, x2 = 0.417	754.3
34550 kPa, x2 = 0.512	759
34550 kPa, x2 = 0.5996	764.5
34550 kPa, x2 = 0.7052	771.5
34550 kPa, x2 = 0.7993	778.7
34550 kPa, x2 = 0.9039	788.2
36580 kPa, x2 = 0	738.8
36580 kPa, x2 = 0.09303	741.8
36580 kPa, x2 = 0.2009	746
36580 kPa, x2 = 0.3051	750.3
36580 kPa, x2 = 0.417	755.5
36580 kPa, x2 = 0.512	760.2
36580 kPa, x2 = 0.5996	765.7
36580 kPa, x2 = 0.7052	772.7
36580 kPa, x2 = 0.7993	780
36580 kPa, x2 = 0.9039	789.5
38600 kPa, x2 = 0	740
38600 kPa, x2 = 0.09303	743
38600 kPa, x2 = 0.2009	747.2
38600 kPa, x2 = 0.3051	751.5
38600 kPa, x2 = 0.417	756.7
38600 kPa, x2 = 0.512	761.4
38600 kPa, x2 = 0.5996	766.9
38600 kPa, x2 = 0.7052	773.9
38600 kPa, x2 = 0.7993	781.4
38600 kPa, x2 = 0.9039	790.7
39620 kPa, x2 = 0	740.6
39620 kPa, x2 = 0.09303	743.6
39620 kPa, x2 = 0.2009	747.8
39620 kPa, x2 = 0.3051	752.1
39620 kPa, x2 = 0.417	757.3
39620 kPa, x2 = 0.512	762
39620 kPa, x2 = 0.5996	767.5
39620 kPa, x2 = 0.7052	774.5
39620 kPa, x2 = 0.9039	791.3
